Source: patent US12396988B2, “Methods of using muscarinic antagonists in the treatment of depression” (BOARD OF REGENTS, THE UNIVERSITY OF TEXAS SYSTEM, priority 2019, dated 2025)
Entries after “also recorded” stand apart in the source; their conditions may differ. Where a name gives a salt, the structure may show the parent alone.

Assays:
[1] = system: humans; conditions: cited from earlier work
[2] = system: rats; conditions: cited from earlier work
[3] = system: rats; assay: Drug discrimination test (arecoline vs saline; discriminative stimulus and rate-decreasing effects of arecoline); format: in vivo, Sprague-Dawley rats; conditions: 1.0 mg/kg CJ2100, rats, FIG. 2
Source text: Rats are initially trained to nose-poke 10 times in any aperture to receive a dipper of Ensure (fixed ratio 10 FR-10 schedule of reinforcement). Nose-poke biases are noted, and the following assignments are made for the 2-nose-poke condition: 1) approximately half of the rats in each group will have the drug-associated aperture on the left, and the remaining rats will have the drug-associated aperture on the right; 2) the drug-associated aperture is assigned to the non-preferred side in half of the rats.
During training, the rats are injected with saline or their training drug and immediately placed in the chamber for a 5-min blackout, followed by a 20-min response period. […]
When these criteria have been met on 3 consecutive days, testing can begin. […] When the effects of putative antagonists are to be evaluated, these drugs are given 15 min before the start of the session, and the training drug is injected immediately before the rat is placed in the chamber. […]
Data analysis: Full generalization to a test compound is defined as >85% responding on the drug-appropriate aperture, and completing at least one ratio. Discrimination data are expressed as the percent responses on the drug-appropriate aperture, out of the total number of responses made in both apertures. Rates of responding are calculated as well: total number of responses/time during the light-on parts of the session. […]

[4] = system: rats; assay: Forced swim test (FST); format: in vivo; conditions: 3 mg/kg, 30 min before a 15-min swim, FIG. 4
Experimental: In the FST, the rats are injected with a test compound and 30 minutes later placed individually in a cylindrical container filled with water at room temperature. The rat's behavior is videotaped from above and is later scored by a trained observed who is blind to the drug conditions. Behavior is classified every 5 seconds over the 15 minute swim period as the following: immobility the rat is hanging quietly in the water, making only enough movement to keep its nose out of the water; swimming moving limbs in an active manner, climbing or actively moving its forepaws against the side of the chamber.
Rats of both sexes as well as rats from the Flinders straw were used for forced swim tests. The rats were injected with a saline control or CJ2100 (0.1 mg/kg, 0.3 mg/kg, 1 mg/kg, or 3 mg/kg) and 30 min later placed individually a cylindrical container (46 cm tall×20 cm, diameter) filled to 30 cm with 25° C. water for a single 15-min forced swim test. Rat behavior was videotaped from above and later scored by a trained observer who was blind to the drug conditions. Behavior was classified every 5 seconds over the 15 minute swim period as following: immobility rat was hanging quietly in the water, making only enough movement to keep its nose out of the water; swimming moving limbs in an active manner, climbing, or actively moving its forepaws against the side of the chamber. […]

[5] = target: T1, M2 receptor (Rattus norvegicus, UniProt P10980); assay: Cardiovascular assay (bradycardia test): antagonism of arecoline-induced bradycardia, telemetry; format: in vivo; conditions: 1 mg/kg test compound s.c. before 10 mg/kg arecoline s.c., rats, FIG. 1
T1 construct: To measure changes in heart rate and mean arterial pressure, rats were implanted with telemetric transmitters; from tissue; host or cells: intact living rats (cardiovascular system, telemetry)
T1 sequence (P10980 1-466): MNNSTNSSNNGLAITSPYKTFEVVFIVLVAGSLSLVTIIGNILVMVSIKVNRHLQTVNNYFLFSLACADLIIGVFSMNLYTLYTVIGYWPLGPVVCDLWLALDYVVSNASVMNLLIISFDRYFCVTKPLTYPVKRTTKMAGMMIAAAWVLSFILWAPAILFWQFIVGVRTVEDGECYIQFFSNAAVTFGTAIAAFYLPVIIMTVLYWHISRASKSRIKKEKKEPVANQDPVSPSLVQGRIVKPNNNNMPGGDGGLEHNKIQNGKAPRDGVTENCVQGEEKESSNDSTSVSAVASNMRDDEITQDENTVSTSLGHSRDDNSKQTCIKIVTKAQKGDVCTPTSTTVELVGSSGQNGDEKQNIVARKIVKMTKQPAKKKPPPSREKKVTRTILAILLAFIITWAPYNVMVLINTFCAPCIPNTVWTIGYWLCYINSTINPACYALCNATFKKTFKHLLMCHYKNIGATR
Source text: All rats continued to have free access to food and water at all times.

[6] = system: rats; assay: Cognitive evaluation: delayed-matching-to-sample (DMTS) touch-screen task, short-term memory; format: in vivo; conditions: doses 0.1-3.2 mg/kg, FIG. 5 left panel
Source text: In cognitive evaluation tests, rats are exposed to a touch screen procedure that evaluates memory (delayed matching to sample, DMTS) and attention (psychomotor vigilance). In the DTMS, a commonly used recognition task to test short-term memory, the subject (a rat) is presented with a sample stimulus. In our procedure, when the rats touch the sample stimulus it terminates on the screen. After a pre-set delay two comparison stimuli appear. A touch response on the comparison stimulus that matches some physical property of the sample stimulus (i.e. color) results in reward delivery. Touching the incorrect comparison stimulus results in a timeout. Accuracy is then plotted vs different delay values to determine a “forgetting function”. This same procedure has been used by many others to assess the deleterious effects of various classes of psychoactive drugs.
(§1) Additional tests involved a novel touch-screen procedure that evaluated memory (delayed-matching-to-sample, DMTS) and attention (psychomotor vigilance, PVT).
In the DMTS, a commonly used recognition task to test short-term memory, rats were presented with a sample stimulus. When the rats touched the sample stimulus, it terminated on the screen. After a pre-set delay, two comparison stimuli appeared. […] Accuracy was then plotted vs. different delay values to determine a “forgetting function.”

[7] = system: rats; assay: Cognitive evaluation: psychomotor vigilance (PVT) touch-screen task, attention; format: in vivo; conditions: doses 0.1-10 mg/kg, FIG. 5 right panel
Source text: Psychomotor vigilance is used to evaluate drug effects of attention and vigilance over a period of time. Championed by David Dinges of U. Penn School of Medicine, it is a reaction timed task to measure the speed with which subjects responds to a visual stimulus. In the task, stimuli of varying intensity are presented to a subject (a rat) in randomized location on the screen following unpredictable intervals. The reaction time of the rat to the stimuli will provide a reliable attention threshold in each individual subject. Attention will decrease over time which serves as a baseline for degradation of sustained vigilance. For these studies, a stimulus is presented on a screen in a random location following a variable time interval (5, 15, 30 seconds). Duration of presentation of the stimulus is 2 seconds on first trial. If the correct stimulus is touched by the rat within 2 seconds, a mild reward is delivered and duration of stimulus presentation is […] by 0.25 seconds for subsequent trials (across 500 trials).
as §1
Psychomotor vigilance (PVT) is used to evaluate drug effects on attention and vigilance over a period of time. Championed by David Dinges of U. Penn. […]

[8] = 1.0 mg/kg scopolamine (Winger et al. 2020)

Row | Compound | Cognitive side effects [1] | Anti-depressant effect in humans ([1]; oral and intravenous treatment) | Effect on the discriminative stimulus of arecoline [2, 8] | Effect on the rate-modifying effects of arecoline [2, 8] | Ability to modify the discriminative stimulus effects of arecoline ([2]; compared with CJ2100) | Ability to modify the rate-suppressing effects of arecoline ([2]; compared with CJ2100) | Shift to the right in the discriminative stimulus effects of arecoline [3] | Immobility in forced swim test [4] | Swimming in forced swim test [4] | Effect on arecoline-induced bradycardia [5] | Effect on ability of the rats to respond in DMTS task (cognitive effect) [6] | Mean duration of short term memory (DMTS) [6] | Effect on ability of the rats to respond in PVT task (cognitive effect) [7] | Mean titration duration of the stimulus (PVT) [7]
1 | CN1[C@@H]2C[C@@H](OC(=O)[C@H](CO)c3ccccc3)C[C@H]1[C@@H]1O[C@@H]12 [scopolamine] | severe cognitive deficits; also recorded: cognitive impairment including memory disturbances | rapid anti-depressant effects | without affecting the discriminative stimulus of arecoline | appeared to increase the rate-modifying effects of arecoline | much less able than CJ2100 to modify | much less able than CJ2100 to modify |  |  |  |  |  |  |  | 
2 | CN1CCC=C(c2nc(C3CC3)no2)C1 [CJ2100, 3-(3-alkyl-1,2,4-oxadiazol-5-yl)-1,2,5,6-tetrahydro-1-methylpylidine oxalate] |  |  |  |  |  |  | ~1 log unit | decrease in immobility | significant increase in swimming | attenuates this effect; also recorded: complete attenuation of this effect | did not modify the ability of the rats to respond; also recorded: silent | approximately 7 sec | did not modify the ability of the rats to respond; also recorded: silent | approximately 2 sec
